Source: patent US20240010635A1, “NOVEL INDIRUBIN DERIVATIVES HAVING HETEROBICYCLIC MOIETIES AND THE USE THEREOF” (priority 2022, published 2024)
Numbering of substitutions follows the chain as printed. Read-outs that look alike come from different tables or passages of the source.

Legend:
[1] = biological target: T1, RET WT (Homo sapiens, UniProt P07949); test: ADP-Glo kinase assay, RET WT; type: biochemical; conditions: recombinant RET wt, 120 min room temperature, read-out: Enzyme activity (IC50, nM) RET WT
T1 construct: Recombinant proteins containing RET wt, RET (M918T) and RET (V804L) domains were purchased from Promega; purchased Promega V8061
T1 sequence (P07949 724-1016 limits assumed): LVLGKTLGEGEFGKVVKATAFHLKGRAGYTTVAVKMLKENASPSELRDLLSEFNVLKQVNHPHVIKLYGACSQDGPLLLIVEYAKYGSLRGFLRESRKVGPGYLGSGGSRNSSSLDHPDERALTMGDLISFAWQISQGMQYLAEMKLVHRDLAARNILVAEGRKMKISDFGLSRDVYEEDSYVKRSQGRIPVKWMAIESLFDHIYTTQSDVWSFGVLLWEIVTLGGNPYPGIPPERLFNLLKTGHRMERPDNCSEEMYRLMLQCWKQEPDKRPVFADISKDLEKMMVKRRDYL
Procedure: (§1) Analysis performed in two steps. First, after kinase reaction, ADP-Glo™ reagent of equal volume was added to finish kinase reaction, and then the rest ATP was exhausted. Second, Kinase Detection Reagent was added to convert ADP to ATP and newly synthesized ATP was measured by luciferase/luciferin reaction at the same time. Generated light was measured by using luminometer. The measured luminescence amount can be applied to the ATP→ADP standard conversion curve to confirm the correlation with the ADP concentration.
(§2) Recombinant proteins containing RET wt, RET (M918T) and RET (V804L) domains were purchased from Promega (cat #V8061, cat #VA7274, cat #V4473), respectively. According to the manufacturer's instructions, optimal enzyme, ATP, and substrate concentration were established using ADP-Glo™ Kinase Assay (Promega, USA). […] Then, ADP-Glo™ Reagent (5 μl) was added and reacted at room temperature for further 40 min. Lastly, Kinase Detection Reagent (10 μl) was added and reacted for 30 min more at room temperature, and then phosphorylation of substrate peptide was measured by measuring luciferase signal (Integration time 0.5-1 second) using SpectraMax ID5 reader (Molecular Devices LLC., San Jose, CA, USA). IC50 was calculated by nonlinear regression using Prism version 5.01 (GrapghPad).

[2] = biological target: T2, RET M918T (Homo sapiens, UniProt P07949, M918T); test: ADP-Glo kinase assay, RET M918T; type: biochemical; conditions: recombinant RET (M918T), 120 min room temperature, read-out: Enzyme activity (IC50, nM) RET M918T
T2 construct: Recombinant proteins containing RET wt, RET (M918T) and RET (V804L) domains were purchased from Promega; purchased Promega VA7274
T2 sequence (P07949 724-1016 M918T limits assumed): T1 sequence (P07949 724-1016 limits assumed) with M195T
Procedure: as §1, §2

[3] = test system: MV4-11; test: Cell proliferation inhibition in AML cell line MV4-11 (Alamar Blue); type: cell-based; conditions: Homo sapiens, MV4-11, 72 hours, read-out: Cell proliferation inhibitory activity (GI50) MV4-11
From the text: Cell proliferation inhibition experiments on acute myeloid leukemia (AML) cell lines tested FLT3 inhibitory activity using MV4-11, Molm-13, and Molm-14 cells, which are FLT3-ITD-expressed AML cell lines. The origin of all cell lines is human-derived cell lines, and the place of purchase and culture conditions of each cell line are as follows.
MV4-11 cells were purchased form the American Type Culture Collection (ATCC, Rockville, MD, USA, cat #CRL-9591), Molm-13 (DSMZ, cat #ACC554), Molm-14 (DSMZ, cat #ACC777), and then cultured in RPMI 1640 medium (Corning Co. 10-040-CV) supplemented with 10% fetal bovine serum, 1% penicillin/streptomycin and 4 mM L-glutamine (Life Technology, GrandIsland, NY).
Cell viability was evaluated by Resazurin redox-based analysis method with Alamar Blue Assay Kit (Invitrogen, USA). Specifically, for MV4-11, Molm-13 and Molm-14 cells, 8000 cells were plated on 384-well plates in 45 μl of medium. Compounds were treated with dimethyl sulfoxide (DMSO) as a negative control group. After 3 days (72 hours) of compound addition, 5 μl of Alamar Blue kit reagent was added to each well of 384-well plate and incubated at 37° C. for 2 hours in a humidified CO2 incubator. After incubation, fluorescence density (Flu) was measured at a wavelength of 544 nm and 590 nm using SpectraMax iD3 Multi Mode Microplate Reader (Molecular Devices, ID3-STD). GI50 was calculated by nonlinear regression using Prism version 5.01 (GraphPad, LaJolla, CA, USA).

Work on `O=C1Nc2ccccc2/C1=C1/Nc2ccccc2/C1=N\OCCN1CC2(CNC2)C1` [Example 1, (2Z,3E)-3-((2-(2,6-diazaspiro[3.3]heptan-2-yl)ethoxy)imino)-[2,3′-biindolinylidene]-2′-one] yielded an IC50 [1] of 1.09 nM, an IC50 [2] of 0.449 nM and a GI50 [3] of 12400 pM.
`O=C1Nc2ccccc2/C1=C1/Nc2ccccc2/C1=N\OCCN[C@H]1[C@@H]2CNC[C@@H]21` [Example 2, (2Z,3E)-3-((2-((1R,5S,6s)-3-azabicyclo[3.1.0]hexan-6-ylamino)ethoxy)imino)-[2,3′-biindolinylidene]-2′-one] was tested, and the IC50 [1] was 0.964 nM, the IC50 [2] was 1.25 nM and the GI50 [3] was 7900 pM.
`N[C@@H]1[C@H]2CN(CCO/N=C3/C(=C4/C(=O)Nc5ccccc54)Nc4ccccc43)C[C@@H]12` [Example 3, (2Z,3E)-3-((2-((1R,5S,6s)-6-amino-3-azabicyclo[3.1.0]hexan-3-yl)ethoxy)imino)-[2,3′-biindolinylidene]-2′-one] showed an IC50 [1] of 0.969 nM, an IC50 [2] of 1.02 nM and a GI50 [3] of 90600 pM.
`O=C1Nc2ccccc2/C1=C1/Nc2ccccc2/C1=N\OCCN1C[C@H]2C[C@@H]1CN2` [Example 4, (2Z,3E)-3-((2-((1R,4R)-2,5-diazabicyclo[2.2.1]heptan-2-yl)ethoxy)imino)-[2,3′-biindolinylidene]-2′-one] showed an IC50 [1] of 0.423 nM and an IC50 [2] of 0.348 nM.
Compound `O=C1Nc2ccccc2/C1=C1/Nc2ccccc2/C1=N\OCCN1C[C@@H]2C[C@H]1CN2` [Example 5, (2Z,3E)-3-((2-((1S,4S)-2,5-diazabicyclo[2.2.1]heptan-2-yl)ethoxy)imino)-[2,3′-biindolinylidene]-2′-one] has an IC50 [1] of 1.85 nM, an IC50 [2] of 0.771 nM and a GI50 [3] of 663 pM.
`O=C1Nc2ccc(F)cc2/C1=C1/Nc2ccccc2/C1=N\OCCN1CC2(CNC2)C1` [Example 6, (2Z,3E)-3-((2-(2,6-diazaspiro[3.3]heptan-2-yl)ethoxy)imino)-5′-fluoro-[2,3′-biindolinylidene]-2′-one] was tested, and the IC50 [1] was 0.668 nM, the IC50 [2] was 0.67 nM and the GI50 [3] was 15600 pM.
`O=C1Nc2ccc(F)cc2/C1=C1/Nc2ccccc2/C1=N\OCCN[C@H]1[C@@H]2CNC[C@@H]21` [Example 7, (2Z,3E)-3-((2-((1R,5S,6s)-3-azabicyclo[3.1.0]hexan-6-ylamino)ethoxy)imino)-5′-fluoro-[2,3′-biindolinylidene]-2′-one] gave an IC50 [1] of 1.03 nM, an IC50 [2] of 0.666 nM and a GI50 [3] of 5650 pM.
`N[C@@H]1[C@H]2CN(CCO/N=C3/C(=C4/C(=O)Nc5ccc(F)cc54)Nc4ccccc43)C[C@@H]12` [Example 8, (2Z,3E)-3-((2-((1R,5S,6s)-6-amino-3-azabicyclo[3.1.0]hexan-3-yl)ethoxy)imino)-5′-fluoro-[2,3′-biindolinylidene]-2′-one] was tested, and the IC50 [1] was 0.441 nM, the IC50 [2] was 0.344 nM and the GI50 [3] was 90600 pM.
With `O=C1Nc2ccc(F)cc2/C1=C1/Nc2ccccc2/C1=N\OCCN1C[C@H]2C[C@@H]1CN2` [Example 9, (2Z,3E)-3-((2-((1R,4R)-2,5-diazabicyclo[2.2.1]heptan-2-yl)ethoxy)imino)-5′-fluoro-[2,3′-biindolinylidene]-2′-one] the IC50 [1] was 0.49 nM, the IC50 [2] was 1.02 nM and the GI50 [3] was 260 pM.
In the case of `O=C1Nc2ccc(F)cc2/C1=C1/Nc2ccccc2/C1=N\OCCN1C[C@@H]2C[C@H]1CN2` [Example 10, (2Z,3E)-3-((2-((1S,4S)-2,5-diazabicyclo[2.2.1]heptan-2-yl)ethoxy)imino)-5′-fluoro-[2,3′-biindolinylidene]-2′-one], the IC50 [1] is reported as 0.815 nM, the IC50 [2] is reported as 0.617 nM and the GI50 [3] is reported as 685 pM.
In the case of `O=C1Nc2ccc(Cl)cc2/C1=C1/Nc2ccccc2/C1=N\OCCN1C[C@H]2C[C@@H]1CN2` [Example 11, (2Z,3E)-3-((2-((1R,4R)-2,5-diazabicyclo[2.2.1]heptan-2-yl)ethoxy)imino)-5′-chloro-[2,3′-biindolinylidene]-2′-one], the IC50 [1] is reported as 1.72 nM, the IC50 [2] is reported as 1.27 nM and the GI50 ([3]; pM) is reported as 40 pM.
Compound `O=C1Nc2ccc(Br)cc2/C1=C1/Nc2ccccc2/C1=N\OCCN1C[C@H]2C[C@@H]1CN2` [Example 13, (2Z,3E)-3-((2-((1R,4R)-2,5-diazabicyclo[2.2.1]heptan-2-yl)ethoxy)imino)-5′-bromo-[2,3′-biindolinylidene]-2′-one] has an IC50 [1] of 1.31 nM, an IC50 [2] of 1.03 nM and a GI50 ([3]; pM) of 61 pM.
Work on `O=C1Nc2ccccc2/C1=C1/Nc2ccccc2/C1=N\OCC(=O)N1CC2(CNC2)C1` [Example 15, (2Z,3E)-3-((2-oxo-2-(2,6-diazaspiro[3.3]heptan-2-yl)ethoxy)imino)-[2,3′-biindolinylidene]-2′-one] yielded an IC50 [1] of 0.664 nM, an IC50 [2] of 1.08 nM and a GI50 [3] of 100000 pM.
`O=C(CO/N=C1/C(=C2/C(=O)Nc3ccccc32)Nc2ccccc21)N[C@H]1[C@@H]2CNC[C@@H]21` [Example 16, N-((1R,5S,6s)-3-azabicyclo[3.1.0]hexan-6-yl)-2-(((E)-((Z)-2′-oxo-[2,3′-biindolinylidene]-3-ylidene)amino)oxy)acetamide] gave an IC50 [1] of 0.873 nM, an IC50 [2] of 1.19 nM and a GI50 [3] of 5040 pM.
`O=C1Nc2ccccc2/C1=C1/Nc2ccccc2/C1=N\OCC(=O)N1C[C@H]2C[C@@H]1CN2` [Example 17, (2Z,3E)-3-((2-((1R,4R)-2,5-diazabicyclo[2.2.1]heptan-2-yl)-2-oxoethoxy)imino)-[2,3′-biindolinylidene]-2′-one] gave an IC50 [1] of 1.53 nM, an IC50 [2] of 1.44 nM and a GI50 [3] of 440 pM.
Work on `O=C1Nc2ccc(F)cc2/C1=C1/Nc2ccccc2/C1=N\OCC(=O)N1CC2(CNC2)C1` [Example 18, (2Z,3E)-5′-fluoro-3-((2-oxo-2-(2,6-diazaspiro[3.3]heptan-2-yl)ethoxy)imino)-[2,3′-biindolinylidene]-2′-one] yielded an IC50 [1] of 1.12 nM, an IC50 [2] of 0.921 nM and a GI50 [3] of 100000 pM.
`O=C(CO/N=C1/C(=C2/C(=O)Nc3ccc(F)cc32)Nc2ccccc21)N[C@H]1[C@@H]2CNC[C@@H]21` [Example 19, N-((1R,5S,6s)-3-azabicyclo[3.1.0]hexan-6-yl)-2-(((E)-((Z)-5′-fluoro-2′-oxo-[2,3′-biindolinylidene]-3-ylidene)amino)oxy)acetamide] was tested, and the IC50 [1] was 1.05 nM, the IC50 [2] was 1.39 nM and the GI50 [3] was 6780 pM.
With `O=C1Nc2ccc(F)cc2/C1=C1/Nc2ccccc2/C1=N\OCC(=O)N1C[C@H]2C[C@@H]1CN2` [Example 20, (2Z,3E)-3-((2-((1R,4R)-2,5-diazabicyclo[2.2.1]heptan-2-yl)-2-oxoethoxy)imino)-5′-fluoro-[2,3′-biindolinylidene]-2′-one] the IC50 [1] was 1.88 nM, the IC50 [2] was 1.19 nM and the GI50 [3] was 1320 pM.
